# Target: T1, PknB (Mycobacterium tuberculosis, UniProt P9WI81)
# T1 construct: made in house
# Assay: biochemical
# Set-up: species or system M. tuberculosis
# Details: 3 nM PknB, 6 uM GarA, 3 μM ATP, 30 min; competitive tight-binding fit; several symbols in a cell = repeat determinations
# T1 sequence (P9WI81 whole entry): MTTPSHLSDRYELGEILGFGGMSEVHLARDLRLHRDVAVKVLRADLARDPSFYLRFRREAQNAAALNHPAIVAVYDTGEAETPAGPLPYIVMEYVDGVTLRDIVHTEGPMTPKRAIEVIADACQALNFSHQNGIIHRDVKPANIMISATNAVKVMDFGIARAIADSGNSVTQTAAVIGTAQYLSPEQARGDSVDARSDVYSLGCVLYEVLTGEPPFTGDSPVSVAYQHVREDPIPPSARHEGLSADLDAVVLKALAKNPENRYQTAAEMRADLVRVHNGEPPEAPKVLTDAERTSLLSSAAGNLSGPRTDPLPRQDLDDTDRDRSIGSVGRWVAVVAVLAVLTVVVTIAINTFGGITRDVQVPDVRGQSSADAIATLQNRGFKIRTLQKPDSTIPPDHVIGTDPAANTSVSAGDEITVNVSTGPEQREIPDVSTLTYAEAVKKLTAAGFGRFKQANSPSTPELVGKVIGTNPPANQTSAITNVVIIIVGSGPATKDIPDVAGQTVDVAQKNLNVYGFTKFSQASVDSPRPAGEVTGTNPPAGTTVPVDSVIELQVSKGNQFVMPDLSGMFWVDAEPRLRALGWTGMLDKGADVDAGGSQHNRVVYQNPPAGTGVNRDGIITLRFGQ
row,Structure (SMILES),Ki Values
1,"C#Cc1cnc(-c2ccc([C@@H](O)CCC)s2)nc1Nc1cc(C2CC2)n[nH]1 (stereo in doubt) [Compound 211, 1-[5-[4-[(5-cyclopropyl-2H-pyrazol-3-yl)amino]-5-ethynyl-pyrimidin-2-yl]-2-thienyl]butan-1-ol]","A**, A*, A*"
2,"Nc1cnc(-c2ccccc2)nc1Nc1cc(C2CC2)[nH]n1 [Compound 5, N-(5-cyclopropyl-1H-pyrazol-3-yl)-2-phenylpyrimidine-4,5-diamine]","A*, A"
3,"CS(=O)(=O)c1ccc(-c2nccc(Nc3cc(C4CC4)[nH]n3)n2)cc1 [Compound 15, N-(5-cyclopropyl-1H-pyrazol-3-yl)-2-(4-(methylsulfonyl)phenyl)pyrimidin-4-amine]","A*, A"

# Same assay, conditions: 3 nM PknB, 6 uM GarA, 3 μM ATP, 30 min; competitive tight-binding fit; several symbols in a cell = repeat determinations; read-out: Ki Values
row,Structure (SMILES),Ki
1,"C[C@@H]1C[C@H]1c1cc(Nc2nc(-c3ccc(S(N)(=O)=O)s3)ncc2Cl)n[nH]1 (relative stereo) [Compound 320, 5-(5-chloro-4-(5-(trans-2-methylcyclopropyl)-1H-pyrazol-3-ylamino)pyrimidin-2-yl)thiophene-2-sulfonamide]",1 to 10 nM
2,"C#Cc1cnc(N2CC[C@H](NC(C)=O)C2)nc1Nc1cc(C2CC2)n[nH]1 (stereo in doubt) [Compound 195, N-[1-[4-[(5-cyclopropyl-2H-pyrazol-3-yl)amino]-5-ethynyl-pyrimidin-2-yl]pyrrolidin-3-yl]acetamide]",2000 to 4000 nM
3,"C#Cc1cnc(-c2ccc([C@@H](O)C(C)C)s2)nc1Nc1cc(C2CC2)n[nH]1 (stereo in doubt) [Compound 210, 1-[5-[4-[(5-cyclopropyl-2H-pyrazol-3-yl)amino]-5-ethynyl-pyrimidin-2-yl]-2-thienyl]-2-methyl-propan-1-ol]",10 to 50 nM
4,"c1ccc(-c2nccc(Nc3cc(C4CC4)n[nH]3)n2)cc1 [Compound 2, N-(5-cyclopropyl-2H-pyrazol-3-yl)-2-phenyl-pyrimidin-4-amine]",50 to 100 nM
5,"CC(=O)Nc1cnc(-c2ccccc2)nc1Nc1cc(C2CC2)n(C(C)=O)n1 [Compound 3, N-[4-[(1-acetyl-5-cyclopropyl-pyrazol-3-yl)amino]-2-phenyl-pyrimidin-5-yl]acetamide]",> 4000 nM
6,"CC(=O)n1nc(Nc2nc(-c3ccccc3)ncc2N)cc1C1CC1 [Compound 4, 1-[3-[(5-amino-2-phenyl-pyrimidin-4-yl)amino]-5-cyclopropyl-pyrazol-1-yl]ethanone]",100 to 500 nM
7,"O=[N+]([O-])c1cnc(-c2ccccc2)nc1Nc1cc(C2CC2)[nH]n1 [Compound 6, N-(5-cyclopropyl-1H-pyrazol-3-yl)-5-nitro-2-phenylpyrimidin-4-amine]",> 4000 nM
8,"Brc1c(C2CC2)n[nH]c1Nc1ccnc(-c2ccccc2)n1 [Compound 7, N-(4-bromo-5-cyclopropyl-2H-pyrazol-3-yl)-2-phenyl-pyrimidin-4-amine]",> 4000 nM
9,"Brc1cnc(-c2ccccc2)nc1Nc1cc(C2CC2)n[nH]1 [Compound 8, 5-Bromo-N-(5-cyclopropyl-1H-pyrazol-3-yl)-2-phenylpyrimidin-4-amine]",100 to 500 nM
10,"CC#Cc1cnc(-c2ccccc2)nc1Nc1cc(C2CC2)n[nH]1 [Compound 9, N-(5-cyclopropyl-1H-pyrazol-3-yl)-2-phenyl-5-(prop-1-ynyl)pyrimidin-4-amine]",> 4000 nM
11,"CC(=O)Nc1cnc(-c2ccccc2)nc1Nc1cc(C2CC2)[nH]n1 [Compound 10, N-(4-(5-cyclopropyl-1H-pyrazol-3-ylamino)-2-phenylpyrimidin-5-yl)acetamide]",1000 to 2000 nM
12,"C/C=C/c1cnc(-c2ccccc2)nc1Nc1cc(C2CC2)[nH]n1 [Compound 11, (E)-N-(5-cyclopropyl-1H-pyrazol-3-yl)-2-phenyl-5-(prop-1-enyl)pyrimidin-4-amine]",100 to 500 nM
13,"c1cc(Nc2cc(C3CC3)[nH]n2)nc(Nc2ccc3[nH]ncc3c2)n1 [Compound 13, N4-(5-cyclopropyl-1H-pyrazol-3-yl)-N2-(1H-indazol-5-yl)pyrimidine-2,4-diamine]",10 to 50 nM

# Reference: US20110053916A1 (Vertex Pharmaceuticals Incorporated, priority 2009, published 2011)
